Values joined by “and” are separate entries in the source; they are usually repeats but may differ in a detail not shown here. Equal values may be shown once. Read-outs that look alike come from different tables or passages of the source.
Key:
[1] = test system: target cells; assay: In vitro evaluation of BPD-DA, -MA, -DB and -MB (as in Example 1); type: cell-based
Protocol: For the "affinity" assay, in the dark, 100 μl of the target cell suspension and 100 μl of the test or control compound were mixed. "Labeling" was allowed to continue for one hour at 4° C., and labeled cells were washed in the dark three times with 3 ml medium each time and resuspended in fresh medium. The resuspended cells were then subjected to light exposure at 300-750 nanometers for 30 minutes.
In a "direct" assay the target cells were irradiated immediately upon addition of the test or control compound.
The effect of irradiation was estimated using methods appropriate to the target cells.
The four compounds shown in FIG. 2, wherein R^1 and R^2 are carbomethoxy, were tested in vitro as described in Example 1.

[2] = test system: M-1 rhabdomycoscercoma; assay: In vivo photosensitization, M-1 rhabdomyosarcoma system in DBA/J2 mice; conditions: for Number of Days Tumor Free (PR) / Cures (tumor regressed and tumor-free for 30 days): Table 6; for Number of Days Tumor Free (PR): 567 Jo/cm^2, IV 24 h before light; for Cures (tumor regressed and tumor-free for 30 days): 567 Jo/cm^2, 8 animals per group; for Days Tumor-free / Number of Cures: Table 7, light dose 378 To/cm^3; for Number of Cures: 9-15 animals
Protocol: Studies of potential photosensitizers were performed using the M-1 rhabdomycoscercoma system in DBA/J2 mice. The compositions to be tested were diluted to a concentration of […] in PBS from a stock solution in DMSO at 8 mg/ml (except Photofrin® II, which was diluted directly from the clinical vial). […]

[3] = test system: VSV; assay: microbe, parasite or virus in culture; parameters: species or system Vesicular stomatitis virus; conditions: for log reduction at 2 µg/mL / log reduction at 1 µg/mL / log reduction at 1000 µg/mL: Vesicular stomatitis virus, light or radiation study; for log reduction at 2 µg/mL / log reduction at 1 µg/mL: 2 h; for log reduction at 2 µg/mL: read-out: viral kill, 2 μg/ml, 1 ml; for log reduction at 1 µg/mL: read-out: virus kill, 1 μg/ml; for log reduction at 1000 µg/mL: read-out: virus kill, 1 mg/ml (so in the source)
[4] = test system: Human atherosclerotic iliofemoral arteries and aorta; assay: In vitro human atherosclerotic tissue study, fluorescence microscopy
Protocol: Human atherosclerotic iliofemoral arteries and aorta were harvested and wrapped in saline-soaked gauze and then incubated for 2 hours at room temperature in MEM-Eagle's Medium and 10% fetal calf serum mixed with BPD-MA formulated at 30 μg/ml. The BPD was prepared by mixing 1 ml of BPD-MA stock solution with 8.1 ml MEM-Eagle's Medium and 0.9 ml fetal calf serum.
The sample was rinsed three times in cold normal saline, and the sections were examined by fluorescence microscopy to evaluate the uptake of BPD. The administered dose was finally diluted to provide solutions containing 0.5-200 μg/ml, and incubation time was varied.

[5] = test system: atherosclerotic aortas; assay: Rabbit studies of aorta, fluorescence microscopy; type: in vivo
Protocol: The rabbits were injected with BPD-MA at various dosages and time intervals prior to sacrifice. The rabbits were euthanized by injection and the entire descending aorta was removed, sectioned, and examined by fluorescence microscopy.

[6] = test system: warts caused by Papilloma virus; assay: Systemic administration, papilloma-caused warts in rabbits; type: in vivo, rabbit; conditions: of 12 warts, 2 mg/kg IV
Protocol: Rabbits displaying warts caused by Papilloma virus were provided according to the model described by Shope et al., J. Exp. Med, (1933) 58:607-624. Five rabbits were administered Photofrin® II porfimer sodium intravenously at 10 mg/kg total dose over a ≤5 minute period beginning 24 hours before irradiation treatment. Six rabbits were administered BPD-MA intravenously at 2 mg/kg total dose over a ≤5 minute period beginning 2.5-3.5 hours before irradiation treatment. Warts were irradiated individually with no light, 150 J/cm^2 or 250 J/cm^2 using 630 nm for porfimer sodium and 690 nm for BPD-MA.

[7] = test system: P815 target cells; conditions: mouse, in vivo, iv
Protocol: (§4) To determine biodegradability, tritiated BPD-MA was injected IV into P815 tumor-bearing mice. The mice were sacrificed at either 3 or 24 hours following injection and tumors, livers and kidneys were removed. The BPD-MA in these tissues was extracted and photoactivity was assessed in P815 target cells as described above in Example 1 under standard in vitro conditions.

[8] = test system: skin; conditions: mouse, in vivo
Protocol: (§5) Mice bearing P815 tumors were shaved and injected with equivalent amounts of photosensitizer, and exposed to 72 Jo/cm^2 (80 mw/cm^2 -15 min-full spectrum) at various time intervals. Skin biopsies were taken at 24 and 48 hours after light irradiation and visual evaluations were made blind.

[9] = test system: colon adenocarcinoma; conditions: rat, in vivo
[10] = in vivo; conditions: mouse, iv
Protocol: as §4

[11] = test system: colon adenocarcinoma; assay: Detection of tumors by fluorescence in rats; conditions: 3.5 mg/kg IV; 3 h
[12] = test system: tumor cells; assay: Alternate in vivo assay: kill of tumor cells from dosed mice (MTT); conditions: 180 min
[13] = Solubility on dilution for addition to blood; conditions: DMSO stock 8 mg/ml diluted into PBS
[14] = test system: skin; assay: Skin sensitivity assay in mice bearing P815 tumors
Protocol: as §5

[15] = type: in vitro ADME; conditions: human
Protocol: (§1) Franz in vitro percutaneous diffusion chambers were used to conduct studies of BPD formulations with oleic acid and oleyl alcohol vehicles (^14 C-BPD having a specific activity of 6 μCi was used). Excised split thickness (200 μ) human cadaver skin was mounted on the chamber (surface area 3 cm^2). The lower reservoir contained 4% bovine serum albumen in isotonic buffered saline, pH 7.0.
(§2) The chambers with the skin were equilibrated to 37° C. prior to application of the drug formulations. Formulations ([…] containing 1.67 μCi) were applied to the epidermal surface of the skin. The chamber was covered (occluded) to prevent evaporation, and the experiment was conducted in the dark.
(§3) Six diffusion cells were run for each time point (1.5 hr, 3 hr, 24 hr) for each formulation. Samples were removed from the dermal chamber at 1.5 hr, 3 hr and 24 hr. Cumulative penetration was assayed by liquid scintillation.
At the end of the respective time point, the surface of the skin was washed to remove surface drug. A 4 mm full thickness skin punch biopsy was taken from each specimen and processed for frozen section tissue fluorescence. This necessitates termination of flux measurements in that chamber. The stratum corneum was removed by 25 repetitive strippings with cellophane tape and counted in groups of five. The epidermis was heat-separated from the dermis by heating to 60° C. for 1 minute. These tissues were then digested and the ^14 C-BPD content of each of the skin compartments and reservoir was determined by liquid scintillation counting. (In the tables, "BPD-OA" and "BPD-OL" represent the BPD-oleic acid and BPD-oleyl alcohol formulations of the preceding example, "CH-014" represents ^14 C-labeled BPD-MA, and "phospholipid" represents a BPD-MA liposomal formulation.)

[16] = type: in vitro ADME, human
Protocol: as §1, §2, §3
At the end of the respective time point, the surface of the skin was washed to remove surface drug. A 4 mm full thickness skin punch biopsy was taken from each specimen and processed for frozen section tissue fluorescence. […] The stratum corneum was removed by 25 repetitive strippings with cellophane tape and counted in groups of five. […] These tissues were then digested and the ^14 C-BPD content of each of the skin compartments and reservoir was determined by liquid scintillation counting. […]

[17] = 33 μg/mouse IV, light dose 5.7 Jo

C=Cc1c(C)c2cc3nc(cc4[nH]c(cc5nc(cc1[nH]2)C(C)=C5CCC(=O)O)c(CCC(=O)OC)c4C)C1(C)C3=CC=C(C(=O)OC)C1C(=O)OC (stereo not shown) [BPD-MA]
in vitro photosensitivity [1]: somewhat more active | Number of Days Tumor Free (PR) [2]: 9.2 days | Cures (tumor regressed and tumor-free for 30 days) [2]: 4 | Days Tumor-free [2]: 13.2 days | Number of Cures [2]: 4 | relationship between total light energy and drug dose required to inactivate VSV ([3]; 1, 2 and 4 μg/ml, 1 ml samples, 2 h before light): inverse relationship between total light energy and the drug dose required to inactivate the VSV | virus inactivation ([3]; 2 and 4 μg/ml, 2 h dark incubation, 57.6 J/cm^2, 1 and 2 ml samples): complete virus inactivation | effect of increasing incubation time on VSV inactivation ([3]; 0.5 hour to 1 hour, 1 μg/ml, 57.6 J/cm^2): improved VSV inactivation | log reduction at 2 µg/mL ([3]; 57.6 J/cm^2): 7 | log reduction at 1 µg/mL ([3]; 28.8 J/cm^2): 2 | log reduction at 1 µg/mL ([3]; 57.6 J/cm^2): 5 | log reduction at 1000 µg/mL ([3]; 1 ml sample, 57.6 J/cm^2): 4 | log reduction at 1000 µg/mL ([3]; 2 ml sample, 57.6 J/cm^2): 2 | effect of incubation temperature ([3]; room temperature, 37° C. or 4° C.): little difference | effect of further increasing incubation time on VSV inactivation ([3]; to 2-3 hours, 1 μg/ml, 57.6 J/cm^2): little effect | fluorescence for detection of plaques ([4]; 10 μg/ml or less): did not provide sufficient fluorescence to detect the presence of plaques | fluorescence for detection of plaques ([4]; 100 μg/ml and above): fluorescence was clearly seen | fluorescence in plaqued areas ([4]; approximately 25 μg/ml): showed most intensely in the plaqued areas | fluorescence in underlying arterial wall ([4]; approximately 25 μg/ml): no fluorescence was seen in the underlying arterial wall | fluorescence in aorta tissue samples ([5]; 30 μg/kg): No fluorescence was seen | fluorescence in normal aorta samples ([5]; 100 μg/kg): no fluorescence was shown in the normal aorta samples | fluorescence in atherosclerotic samples ([5]; 100 μg/kg, two samples): fluorescence was seen in the plaque but not the arterial wall | warts completely regressed ([6]; 150 J/cm^2, 690 nm): 7 | warts showing >50% regression ([6]; 150 J/cm^2, 690 nm): 5 | warts showing complete cure ([6]; 250 J/cm^2, 690 nm): 12 | degradation in liver and kidney compared with tumor tissue [7]: both the liver and kidney degraded BPD more rapidly than did tumor tissue | skin photosensitizing activity [8]: major photosensitizing activity | time dependence of skin photosensitizing activity [8]: only present when light treatment was given 3 hours post drug administration | drug-related signal over malignant tumor [9]: BPD-MA-related signal increases over the malignant tumor | remaining at 3 h [10]: 100% | remaining at 24 h [10]: 39% | ratio of tumor exterior to muscle compared with HP [11]: approximately the same as that for HP | % Kill [12, 17]: 22.0% | % Kill ([12]; 40 μg/mouse IV, light dose 3.8 Jo): 32.5% | % Kill ([12]; 80 μg/mouse IV, light dose 3.8 Jo): 63.5 ± 2.1% and 53.7 ± 6.2%

C=Cc1c(C)c2cc3nc(cc4[nH]c(cc5nc(cc1[nH]2)C1(C)C5=CC=C(C(=O)OC)C1C(=O)OC)c(C)c4CCC(=O)O)C(CCC(=O)OC)=C3C (stereo not shown) [BPD-MB]
in vitro photosensitivity [1]: somewhat more active | Number of Days Tumor Free (PR) [2]: 10.6 days | Cures (tumor regressed and tumor-free for 30 days) [2]: 3 | Days Tumor-free [2]: 8.7 days | Number of Cures [2]: 6 | log reduction at 2 µg/mL ([3]; 57.6 J/cm^2): 4 | treatment required to achieve solubility [13]: required a 20-minute sonication in ultrasonic bath to achieve solubility | skin photosensitizing activity ([14]; 72 Jo/cm^2, biopsies 24 and 48 h after light): to a lesser extent | time dependence of skin photosensitizing activity ([14]; light at various intervals after drug): only present when light treatment was given 3 hours post drug administration | % Kill [12, 17]: 25.2%

C=Cc1c(C)c2cc3nc(cc4[nH]c(cc5nc(cc1[nH]2)C(C)=C5CCC(=O)O)c(CCC(=O)OC)c4C)C1(C)C3=CC=C(C(=O)OC)C1C(=O)OC (stereo not shown) [CH-014]
PERCENT RECOVERY, Dermis ([15]; 90 min): .19 ± .06% | PERCENT RECOVERY, Epidermis ([15]; 90 min): .13 ± .13% | PERCENT RECOVERY, Reservoir ([15]; 90 min): 0% | PERCENT RECOVERY, Dermis ([15]; 180 min): .32 ± .11% | PERCENT RECOVERY, Epidermis ([15]; 180 min): .06 ± .02% | PERCENT RECOVERY, Reservoir ([15]; 180 min): 0% | PERCENT RECOVERY, Dermis ([15]; 1440 min): .40 ± .28% | PERCENT RECOVERY, Epidermis ([15]; 1440 min): .06 ± .03% | PERCENT RECOVERY, Reservoir ([15]; 1440 min): .014 ± .018% | TISSUE FLUORESCENCE, Dermis [16]: 1

Reference: patent publication US5283255A, “Wavelength-specific cytotoxic agents” (The University of British Columbia, priority 1992, dated 1994)
